Assay results published in patent publication US20090043378A1, “Biocompatible Polymer System for Extended Drug Release” (priority 2007, published 2009).
In brackets after ≈: the same amount, converted by molar mass.

Assays:
Monocytic U937 cells = experiment: Monocyte adhesion to polymer coated wells (calcein uptake); format: cell-based
Description: Monocytic U937 cells were purchased from ATCC Cell Biology Collection and maintained in culture according to vendor recommendations. U937 cells were seeded at 1×10^5/well onto polymer coated 96 well plates. The cells were stimulated with lipopolysaccharide (LPS) (100 ng/mL) and phorbol-12-myristate-13-acetate (PMA) (100 ng/mL) to induce differentiation and inflammatory activation. […] Adhesion of U937 cells to the polymer scaffold was assessed by calcein uptake as detailed in the following protocol. U937 cells were fluorescently labeled by incubation with calcein (1 mg/mL) for 30 minutes. Calcein is a fluorescent dye hydrolyzed by esterases in viable cells. The percent uptake of calcein is directly proportional to the number of viable cells in the well. The percent of cell adhesion was determined by reading the fluorescent measurements prior to and after gentle PBS washing of the adherent monocytes from the polymer coated plates. […] To calculate the relative percent adhesion, the ratio between the fluorescent measurement prior to and after gentle PBS washing of the adherent monocytes from the polymer coated plates was first determined. […]
In order to evaluate, in vitro, the polymers potential to elicit an inflammatory response, the adhesion of activated monocytes to the components of various polymers were measured, individually and in combination (C10, C19, and C10/C19).

[1] = Octanol-water partition coefficient of zotarolimus; format: physicochemical
Description: In one embodiment, the drug is zotarolimus (Formula 1) ([…], molecular weight=966.5 g/mol), a tetrazole-containing macrocyclic immunosuppressant. […] The mechanism of action of zotarolimus is binding to FKBP12, leading to the formation of a trimeric complex with the protein kinase mTOR (mammalian target of rapamycin) thereby inhibiting its activity. Inhibition of mTOR results in the inhibition of protein phosphorylation events associated with translation of mRNA and cell cycle control.

physchem = format: physicochemical
Description: The hydrophobicity of zotarolimus enhances its absorption across the cellular membrane leading to inhibition of neointimal proliferation of the target tissues.

Poly(butyl methacrylate) [PBMA]
monocyte adherence, fold induction over non-stimulated, negative control cells (Monocytic U937 cells): 12.6 fold

CO[C@H]1C[C@@H]2CC[C@@H](C)[C@@](O)(O2)C(=O)C(=O)N2CCCC[C@H]2C(=O)O[C@H]([C@H](C)C[C@@H]2CC[C@H](n3cnnn3)[C@H](OC)C2)CC(=O)[C@H](C)/C=C(\C)[C@@H](O)[C@@H](OC)C(=O)[C@H](C)C[C@H](C)/C=C/C=C/C=C/1C [zotarolimus]
octanol-water partition coefficient ([1]; pH 6.5): > 4.5
octanol-water partition coefficient ([1]; pH 7.4): > 4.5
solubility (physchem; pH 6.5, aqueous buffer): 0.47 µg/mL (≈ 0.486 µM)
solubility (physchem; pH 7.4, aqueous buffer): 0.53 µg/mL (≈ 0.549 µM)
